IC50 data for twelve compounds are collected here from patent US20250367308A1, “LIGAND-DRUG CONJUGATE OF CAMPTOTHECIN ANALOGS, INTERMEDIATES, PREPARATION METHOD THEREFOR, PHARMACEUTICAL COMPOSITION AND APPLICATION THEREOF” (SHANGHAI MICURX PHARMACEUTICAL CO.,LTD., priority 2022, published 2025).

The test system of this experiment is Human lung adenocarcinoma cell line A549. Description: In vitro cytotoxicity test of camptothecin payloads (CellTiter-Glo). It counts as cell-based. To be noted: Homo sapiens, A549, 72 h, read-out: A549 Cytotoxicity IC50 (nM). How it is done: Human lung adenocarcinoma cell line A549 was used to evaluate the cytotoxicity of small molecule fragment of the present invention. A549 cells were seeded to a 96-well plate at 2000 cells per well.
For orientation: In ATP-based viability assays light output follows the ATP content of the culture.

Structures are written as SMILES.

For the compound `CC[C@@]1(O)C(=O)OCc2c1cc1n(c2=O)Cc2c-1nc1cc(F)c(C)cc1c2CN1CCC2(CC1)CC(O)C2` [Example 31, (S)-4-ethyl-8-fluoro-4-hydroxy-11-((2-hydroxy-7-azaspiro[3.5]nonan-7-yl)methyl)-9-methyl-1H-pyrano[3′,4′:6,7] indolizino[1,2-b]quinoline-3,14(4H,12H)-dione], the IC50 (commonly the point on the concentration scale where inhibition reaches its midpoint) was determined as 12.5 nM.

On to `CC[C@@]1(O)C(=O)OCc2c1cc1n(c2=O)Cc2c-1nc1cc(F)c(C)cc1c2CN1CCC2(CCC2O)CC1` (stereo partly drawn) [Example 32, (4S)-4-ethyl-8-fluoro-4-hydroxy-11-((1-hydroxy-7-azaspiro[3.5]nonan-7-yl)methyl)-9-methyl-1H-pyrano[3′,4′:6,7] indolizino[1,2-b]quinoline-3,14(4H,12H)-dione], for which the half-maximal inhibitory concentration (IC50) came out at 12.6 nM. Consider `CC[C@@]1(O)C(=O)OCc2c1cc1n(c2=O)Cc2c-1nc1cc(F)c(C)cc1c2CN1C[C@H]2CC[C@@H](C1)C2O` (stereo partly drawn) [Example 33, (4S)-4-ethyl-8-fluoro-4-hydroxy-11-(((1R,5S)-8-hydroxy-3-azabicyclo[3.2.1]octan-3-yl)methyl)-9-methyl-1H-pyrano[3′,4′:6,7] indolizino[1,2-b]quinoline-3,14(4H,12H)-dione], for which the 50% inhibitory concentration (IC50) is 12.9 nM. For the compound `CC[C@@]1(O)C(=O)OCc2c1cc1n(c2=O)Cc2c-1nc1cc3c(cc1c2CN1CCC([C@@H](C)O)CC1)OCCO3` [Example 36], the IC50 was determined as 38.4 nM.

Turning to `CC[C@@]1(O)C(=O)OCc2c1cc1n(c2=O)Cc2c-1nc1cc(F)c(F)cc1c2CN1CCC([C@@H](C)O)CC1` [Example 37, (S)-4-ethyl-8,9-difluoro-4-hydroxy-11-((4-((R)-1-hydroxyethyl)piperidin-1-yl)methyl)-1,12-dihydro-14H-pyrano[3′,4′:6,7] indolizino[1,2-b]quinoline-3,14(4H)-dione], the half-inhibitory concentration (IC50) stood at 29 nM. `CC[C@@]1(O)C(=O)OCc2c1cc1n(c2=O)Cc2c-1nc1ccc(O)cc1c2CN1CCC([C@@H](C)O)CC1` [Example 38, (S)-4-ethyl-4,9-dihydroxy-11-((4-((R)-1-hydroxyethyl)piperidin-1-yl)methyl)-1,12-dihydro-14H-pyrano[3′,4′:6,7] indolizino[1,2-b]quinoline-3,14(4H)-dione]: the IC50 is 1250 nM. To `CC[C@@]1(O)C(=O)OCc2c1cc1n(c2=O)Cc2c-1nc1cc(F)c(C)cc1c2C(C)N1CCC([C@@H](C)O)CC1` (stereo partly drawn) [Example 39, (4S)-4-ethyl-8-fluoro-4-hydroxy-11-(1-(4-((R)-1-hydroxyethyl)piperidin-1-yl)ethyl)-9-methyl-1,12-dihydro-14H-pyrano[3′,4′:6,7] indolizino[1,2-b]quinoline-3,14(4H)-dione] belongs 128 nM; to `CC[C@@]1(O)C(=O)OCc2c1cc1n(c2=O)Cc2c-1nc1ccc(OCC(=O)N3CCCCC3)cc1c2CN1CCC([C@@H](C)O)CC1` [Example 40, (S)-4-ethyl-4-hydroxy-11-((4-((R)-1-hydroxyethyl)piperidin-1-yl)methyl)-9-(2-oxo-2-(piperidin-1-yl)ethoxy)-1,12-dihydro-14H-pyrano[3′,4′:6,7] indolizino[1,2-b]quinoline-3,14(4H)-dione], 1290 nM; to `CC[C@@]1(O)C(=O)OCc2c1cc1n(c2=O)Cc2c-1nc1cc(F)c(OC)cc1c2CN1CCC([C@@H](C)O)CC1` [Example 41, (S)-4-ethyl-8-fluoro-4-hydroxy-11-((4-((R)-1-hydroxyethyl)piperidin-1-yl)methyl)-9-methoxy-1,12-dihydro-14H-pyrano[3′,4′:6,7] indolizino[1,2-b]quinoline-3,14(4H)-dione], 31 nM. To `CC[C@@]1(O)C(=O)OCc2c1cc1n(c2=O)Cc2c-1nc1cc3c(cc1c2CN1CCC2(CC1)CC(O)C2)OCCO3` [Example 44] belongs 30 nM. To `CC[C@@]1(O)C(=O)OCc2c1cc1n(c2=O)Cc2c-1nc1cc3c(cc1c2CN1C[C@@H]2CCC[C@@H]2[C@H]1CO)OCCO3` [Example 45] belongs 53 nM. `CC[C@@]1(O)C(=O)OCc2c1cc1n(c2=O)Cc2c-1nc1cc(F)c(C)cc1c2CN1C[C@H]2C[C@@H](C1)C2O` (stereo partly drawn) [Example 47, (4S)-4-ethyl-8-fluoro-4-hydroxy-11-(((1R,5S)-6-hydroxy-3-azabicyclo[3.1.1]heptan-3-yl)methyl)-9-methyl-1,12-dihydro-14H-pyrano[3',4':6,7] indolizino[1,2-b]quinoline-3,14(4H)-dione]: the IC50 came to 28 nM.
